# Laboratory results reported in the supplement of paper PMC11061612.
# Columns and labels:
# [1] = system: SW1463 (Colorectal Carcinoma); assay: combination Emax (second highest fraction inhibited in the dose matrix, 72 h); higher = more inhibition; extreme values may be limits of the assay
# How it was run: (§1)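 Bliss excess equals the observed combination effect minus the expected value EA + EB − EA·EB, where EA and EB are the effects of each agent alone. Combination Emax is the second-highest inhibition within the matrix. Inhibition was scaled from CellTiter-Glo 2.0 luminescence, with 0 set by vehicle wells and 1 by blank wells, after 72 hours of two-drug dosing of cells plated in 1536-well plates.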
# [2] = system: MDA-MB-175-VII (Breast Carcinoma); assay: as above
# How it was run: as §1
# [3] = system: NCI-H2023 (Non-Small Cell Lung Carcinoma); assay: as above
# How it was run: as §1
# C32 (Melanoma) [4] = assay: as above
# How it was run: as §1
# [5] = system: L-363 (Plasma Cell Myeloma); assay: as above
# How it was run: as §1
# [6] = system: SBC-3 (Small Cell Lung Carcinoma); assay: as above
# How it was run: as §1
# [7] = system: COR-L105 (Lung Adenocarcinoma); assay: as above
# How it was run: as §1
# A375 (Melanoma) [8] = assay: as above
# How it was run: as §1
# [9] = system: RPMI-8402 (T-Lymphoblastic Leukemia); assay: as above
# How it was run: as §1
# [10] = system: NTERA-2-cl-D1 (Other Solid Carcinomas); assay: as above
# How it was run: as §1
# GCIY (Gastric Carcinoma) [11] = assay: as above
# How it was run: as §1
# [12] = system: OVKATE (Ovarian Carcinoma); assay: as above
# How it was run: as §1
# [13] = system: KNS-62 (Squamous Cell Lung Carcinoma); assay: as above
# How it was run: as §1
# [14] = system: NCI-H2009 (Lung Adenocarcinoma); assay: as above
# How it was run: as §1
# [15] = system: BC-1 (B-Cell Non-Hodgkin's Lymphoma); assay: as above
# How it was run: as §1
# [16] = system: MRK-nu-1 (Breast Carcinoma); assay: as above
# How it was run: as §1
# SK-MEL-24 (Melanoma) [17] = assay: as above
# How it was run: as §1
# [18] = system: NCI-H1648 (Lung Adenocarcinoma); assay: as above
# How it was run: as §1
# NCI-H2452 (Mesothelioma) [19] = assay: as above
# How it was run: as §1
# MG-63 (Osteosarcoma) [20] = assay: as above
# How it was run: as §1
# [21] = system: NCI-H1435 (Non-Small Cell Lung Carcinoma); assay: as above
# How it was run: as §1
# [22] = system: CAL-85-1 (Breast Carcinoma); assay: as above
# How it was run: as §1
# [23] = system: NCI-H835 (Other Solid Carcinomas); assay: as above
# How it was run: as §1
# [24] = system: SW1463 (Colorectal Carcinoma); assay: Bliss excess, mean over the matrix (fraction); higher = more synergy
# How it was run: as §1
# [25] = system: MDA-MB-175-VII (Breast Carcinoma); assay: as above
# How it was run: as §1
# [26] = system: NCI-H2023 (Non-Small Cell Lung Carcinoma); assay: as above
# How it was run: as §1
# C32 (Melanoma) [27] = assay: as above
# How it was run: as §1
# [28] = system: L-363 (Plasma Cell Myeloma); assay: as above
# How it was run: as §1
# [29] = system: SBC-3 (Small Cell Lung Carcinoma); assay: as above
# How it was run: as §1
# [30] = system: COR-L105 (Lung Adenocarcinoma); assay: as above
# How it was run: as §1
# A375 (Melanoma) [31] = assay: as above
# How it was run: as §1
# [32] = system: RPMI-8402 (T-Lymphoblastic Leukemia); assay: as above
# How it was run: as §1
# [33] = system: NTERA-2-cl-D1 (Other Solid Carcinomas); assay: as above
# How it was run: as §1
# GCIY (Gastric Carcinoma) [34] = assay: as above
# How it was run: as §1
# [35] = system: OVKATE (Ovarian Carcinoma); assay: as above
# How it was run: as §1
# [36] = system: KNS-62 (Squamous Cell Lung Carcinoma); assay: as above
# How it was run: as §1
# [37] = system: NCI-H2009 (Lung Adenocarcinoma); assay: as above
# How it was run: as §1
# [38] = system: BC-1 (B-Cell Non-Hodgkin's Lymphoma); assay: as above
# How it was run: as §1
# [39] = system: MRK-nu-1 (Breast Carcinoma); assay: as above
# How it was run: as §1
# SK-MEL-24 (Melanoma) [40] = assay: as above
# How it was run: as §1
# [41] = system: NCI-H1648 (Lung Adenocarcinoma); assay: as above
# How it was run: as §1
# NCI-H2452 (Mesothelioma) [42] = assay: as above
# How it was run: as §1
# MG-63 (Osteosarcoma) [43] = assay: as above
# How it was run: as §1
# [44] = system: NCI-H1435 (Non-Small Cell Lung Carcinoma); assay: as above
# How it was run: as §1
# [45] = system: CAL-85-1 (Breast Carcinoma); assay: as above
# How it was run: as §1
# [46] = system: NCI-H835 (Other Solid Carcinomas); assay: as above
# How it was run: as §1
structure (smiles),measurement,setting,value
"CC1(C)CCC(CN2CCN(c3ccc(C(=O)NS(=O)(=O)c4ccc(NCC5CCOCC5)c([N+](=O)[O-])c4)c(Oc4cnc5[nH]ccc5c4)c3)CC2)=C(c2ccc(Cl)cc2)C1 [Venetoclax] + CS(=O)(=O)CCNCc1ccc(-c2ccc3ncnc(Nc4ccc(OCc5cccc(F)c5)c(Cl)c4)c3c2)o1 [Lapatinib] (first compound max 1 µM, 7x7, partner max 10 µM)",combination Emax,[1],0.4
same,combination Emax,[2],0.937
same,combination Emax,[3],0.195
same,combination Emax,C32 (Melanoma) [4],0.209
same,combination Emax,[5],0.133
same,combination Emax,[6],0.183
same,combination Emax,[7],0.587
same,combination Emax,A375 (Melanoma) [8],0.169
same,combination Emax,[9],0.839
same,combination Emax,[10],0.2
same,combination Emax,GCIY (Gastric Carcinoma) [11],0.276
same,combination Emax,[12],0.182
same,combination Emax,[13],0.186
same,combination Emax,[14],0.151
same,combination Emax,[15],0.904
same,combination Emax,[16],0.114
same,combination Emax,SK-MEL-24 (Melanoma) [17],0.683
same,combination Emax,[18],0.624
same,combination Emax,NCI-H2452 (Mesothelioma) [19],0.29
same,combination Emax,MG-63 (Osteosarcoma) [20],0.302
same,combination Emax,[21],0.195
same,combination Emax,[22],0.657
same,combination Emax,[23],0.294
same,Bliss excess,[24],0.0659
same,Bliss excess,[25],0.0085
same,Bliss excess,[26],-0.06
same,Bliss excess,C32 (Melanoma) [27],-0.0443
same,Bliss excess,[28],-0.0033
same,Bliss excess,[29],-0.0339
same,Bliss excess,[30],-0.0535
same,Bliss excess,A375 (Melanoma) [31],-0.0207
same,Bliss excess,[32],-0.0163
same,Bliss excess,[33],-0.0618
same,Bliss excess,GCIY (Gastric Carcinoma) [34],-0.0655
same,Bliss excess,[35],-0.035
same,Bliss excess,[36],-0.0116
same,Bliss excess,[37],-0.0358
same,Bliss excess,[38],0.022
same,Bliss excess,[39],-0.0243
same,Bliss excess,SK-MEL-24 (Melanoma) [40],-0.0188
same,Bliss excess,[41],0.04
same,Bliss excess,NCI-H2452 (Mesothelioma) [42],-0.0546
same,Bliss excess,MG-63 (Osteosarcoma) [43],0.0029
same,Bliss excess,[44],0.0073
same,Bliss excess,[45],-0.044
same,Bliss excess,[46],-0.0206
